Measurements taken from ChEMBL document CHEMBL2034981, “MK-8825: a potent and selective CGRP receptor antagonist with good oral activity in rats” (Bioorg Med Chem Lett, 2012).
Converted amounts (≈) assume the structure as drawn.

Tests used:
[1] = biological target: T1, Calcitonin gene-related peptide type 1 receptor (Rattus norvegicus, UniProt Q63118); test: Displacement of [125I]CGRP from CGRP receptor in rat spleen homogenate after 180 mins by gamma counting; type: tissue-based
[2] = Fraction unbound in rat plasma; type: ADME, cell-free
[3] = biological target: Calcitonin-gene-related peptide receptor, CALCRL/RAMP1 (Homo sapiens, UniProt O60894+Q16602); test: Displacement of [125I]CGRP from human recombinant CALCRL/RAMP1 receptor expressed in HEK293 cells after 3 hrs; type: cell-based
Chain of Calcitonin-gene-related peptide receptor, CALCRL/RAMP1 (O60894 whole entry): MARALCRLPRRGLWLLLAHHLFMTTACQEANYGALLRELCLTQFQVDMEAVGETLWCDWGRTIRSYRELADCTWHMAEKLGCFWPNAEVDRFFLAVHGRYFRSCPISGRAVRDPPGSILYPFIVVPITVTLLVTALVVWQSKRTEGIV
Chain of Calcitonin-gene-related peptide receptor, CALCRL/RAMP1 (Q16602 whole entry): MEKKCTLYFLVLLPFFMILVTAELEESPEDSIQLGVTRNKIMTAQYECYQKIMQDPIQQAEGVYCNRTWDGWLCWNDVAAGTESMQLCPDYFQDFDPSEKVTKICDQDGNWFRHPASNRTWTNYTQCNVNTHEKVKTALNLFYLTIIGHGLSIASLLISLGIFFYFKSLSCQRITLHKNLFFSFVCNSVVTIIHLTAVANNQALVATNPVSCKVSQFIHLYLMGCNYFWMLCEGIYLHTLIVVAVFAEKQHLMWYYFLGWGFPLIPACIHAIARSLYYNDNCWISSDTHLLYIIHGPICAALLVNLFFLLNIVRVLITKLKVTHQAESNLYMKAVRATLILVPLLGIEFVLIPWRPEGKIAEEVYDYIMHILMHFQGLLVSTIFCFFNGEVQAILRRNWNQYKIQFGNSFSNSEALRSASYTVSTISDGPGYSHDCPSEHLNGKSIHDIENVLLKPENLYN

[4] = biological target: T1, Calcitonin gene-related peptide type 1 receptor; test: Displacement of [125I]CGRP from CGRP receptor in rat brain membrane after 3 hrs; type: cell membranes
[5] = Aqueous solubility of the compound in phosphate buffer at pH 7; type: physicochemical
Rattus norvegicus = test: Antimigraine activity in iv dosed rat assessed as inhibition of capsaicin-induced dermal vasodilation administered 10 mins post capsaicin-challenge measured after 20 mins by laser doppler scanning; type: functional, organism-based
[6] = Displacement of [125I]CGRP from CGRP receptor in rhesus monkey cerebellum after 3 hrs; type: tissue-based, Macaca mulatta
[7] = Fraction unbound in dog plasma; type: ADME, cell-free, Canis lupus familiaris
[8] = Selectivity ratio of Ki for rat CGRP receptor to Ki for human CGRP receptor
[9] = Ratio of Ki for rat CGRP receptor to Ki for rhesus monkey CGRP receptor
Rhesus monkey = test: Antimigraine activity in iv dosed rhesus monkey assessed as inhibition of capsaicin-induced dermal vasodilation administered 5 mins post capsaicin-challenge measured after 20 mins by laser doppler scanning; type: functional, organism-based; conditions: Macaca mulatta
[10] = Fraction unbound in monkey plasma; type: ADME, cell-free, Macaca mulatta; conditions: rhesus monkey
[11] = Fraction unbound in human plasma; type: ADME, cell-free

T1 sequence (Q63118 whole entry): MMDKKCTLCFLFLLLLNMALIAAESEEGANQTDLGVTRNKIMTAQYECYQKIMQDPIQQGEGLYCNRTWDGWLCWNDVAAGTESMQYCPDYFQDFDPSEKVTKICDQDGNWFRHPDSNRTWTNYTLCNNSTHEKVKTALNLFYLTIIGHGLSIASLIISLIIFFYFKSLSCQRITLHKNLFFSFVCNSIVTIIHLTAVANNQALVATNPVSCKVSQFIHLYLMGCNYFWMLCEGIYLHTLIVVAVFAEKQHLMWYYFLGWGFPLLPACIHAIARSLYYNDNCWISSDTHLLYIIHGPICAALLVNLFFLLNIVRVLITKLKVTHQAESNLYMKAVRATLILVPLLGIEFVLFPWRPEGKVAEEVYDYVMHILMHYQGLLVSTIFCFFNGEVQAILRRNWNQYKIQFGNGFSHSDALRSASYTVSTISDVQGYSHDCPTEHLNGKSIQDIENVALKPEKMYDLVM

## NCCCC[C@H](NC(=O)[C@@H](Cc1cc(Br)c(O)c(Br)c1)NC(=O)N1CCC(N2Cc3ccccc3NC2=O)CC1)C(=O)N1CCN(c2ccncc2)CC1 [OLCEGEPANT]
[1]
  Ki: 3.4 nM

## O=C(CN1C(=O)C2(CCCC2)NC[C@H]1c1cc(F)c(Cl)c(F)c1)Nc1cnc2c(c1)C[C@@]1(C2)C(=O)Nc2ncccc21
[2]
  fraction unbound: 0.0057
[3]
  Ki: 0.014 nM
[4]
  Ki: 18 nM

## C[C@@]1(c2cc(F)c(Cl)c(F)c2)CNC2(CCCC2)C(=O)N1CC(=O)Nc1cnc2c(c1)C[C@@]1(C2)C(=O)Nc2ncccc21
[2]
  fraction unbound: 0.034
[3]
  Ki: 0.016 nM
[4]
  Ki: 13 nM

## O=C(CN1C(=O)C2(CCCC2)NC[C@H]1c1cc(F)cc(F)c1)Nc1cnc2c(c1)C[C@@]1(C2)C(=O)Nc2ncccc21
[2]
  fraction unbound: 0.0096
[3]
  Ki: 0.028 nM
[4]
  Ki: 38 nM

## O=C(CN1C(=O)C2(CCCC2)NC[C@H]1c1cc(F)cc(F)c1)Nc1ccc2c(c1)C[C@@]1(C2)C(=O)Nc2ncccc21 [MK3207]
[5]
  solubility: 17 µg/mL (≈ 30.5 µM)
Rattus norvegicus
  EC50: 58000 nM
  inhibition: Dose-dependent effect
[2]
  fraction unbound: 0.0084
[6]
  Ki: 0.024 nM
[7]
  fraction unbound: 0.061
[3]
  Ki: 0.022 nM
[4]
  Ki: 10 nM
[8]
  Ratio Ki: 400
[9]
  Ratio Ki: 400
Rhesus monkey
  EC50: 0.8 nM
[10]
  fraction unbound: 0.096
[11]
  fraction unbound: 0.094
